Assay results as given in patent publication US20250136574A1, “SELECTIVE AGENTS TARGETING MYCOBACTERIUM TUBERCULOSIS” (priority 2022, published 2025).
“And” between values parts separate entries of the source, which are not always exact repeats. Equal values may be shown once.

System: Vero TMPRSS2 cells
Experiment: Cytotoxicity at single concentration, CellTiter-Glo ATP quantitation
Type: cell-based, African Green Monkey
Conditions: 72 hours
Protocol: Cytotoxicity assays were conducted to measure toxicity of compounds at single concentration in Vero TMPRSS2 cells by using quantitation of ATP to indicate metabolically active cells. Vero cells (derived from African Green Monkey kidney epithelial tissue) were grown in Dulbecco's Modified Eagle Medium (DMEM) supplemented with 10% fetal bovine serum (FBS), 10 mM HEPES buffered saline, and 2 mM L-glutamine. 5,000 cells per well were seeded into a 96-well plate containing two-fold titrations of compounds. The concentration of DMSO was maintained at 0.5% for all wells to avoid toxicity. The plates were incubated for 72 hours, at which point they were acclimatized to room temperature for 30 minutes. 25 μL of the substrate/buffer solution from the Promega CellTiter-Glo Luminescent Cell Viability Assay kit was added to each well. The plates were shaken at a low orbital speed for 3 minutes and let rest at room temperature for 10 minutes, after which luminescence was measured using a BioTek Synergy H1 Microplate Reader H1M. The positive control was defined as wells containing cells without compounds.
Percent viability was calculated as follows: […]

| Compound | % Cell Viability Average (100 uM) | % Cell Viability Replicate 1 (100 uM) | % Cell Viability Replicate 2 (100 uM) | also measured |
| --- | --- | --- | --- | --- |
| CCCCCCC#Cc1cncc(C(=O)NN)c1 |  |  |  | % Cell Viability Average (125 uM): 36.66%; % Cell Viability Replicate 1 (125 uM): 34.62%; % Cell Viability Replicate 2 (125 uM): 38.69% |
| CCCCCCC#Cc1cncc(-c2nnc(SCc3cccc([N+](=O)[O-])c3)n2C)c1 | 26.47% | 26.28% | 26.66% |  |
| CCCCCCC#Cc1cncc(-c2nnc(SCCCn3ccc(=O)[nH]c3=O)n2C)c1 | 14.14% | 9.07% | 19.21% |  |
| CCCCCCC#Cc1cncc(-c2nnc(SC[C@H]3O[C@@H](n4ccc(=O)[nH]c4=O)[C@@H]4OC(C)(C)O[C@@H]43)n2C)c1 | 1.10% | 1.02% | 1.19% |  |
| CCCCCCC#Cc1cncc(-c2nnc(S)n2C)c1 | 0.76% | 0.70% | 0.82% |  |
| CO[C@H]1[C@H](O[C@H]([C@H]2O[C@@H](n3ccc(=O)[nH]c3=O)[C@H](O)[C@@H]2O)[C@H](NCCCNC(=O)[C@H](CC(C)C)NC(=O)[C@@H](NC(=O)N[C@H](C(=O)O)C(C)C)[C@@H]2CCN=C(N)N2)C(=O)O)O[C@H](CN)[C@H]1O [Muraymycin D1, reference compound] |  |  |  | % Cell Viability Average (50 uM): 92.38% and 91.22% and 89.63%; % Cell Viability Replicate 1 (50 uM): 93.83% and 94.27% and 87.87%; % Cell Viability Replicate 2 (50 uM): 90.92% and 88.18% and 91.39% |
| [H]/N=C(/N)N[C@H]1[C@H](O)[C@@H](O)[C@H](O[C@@H]2O[C@@H](C)[C@](O)(C=O)[C@H]2O[C@@H]2O[C@@H](CO)[C@H](O)[C@@H](O)[C@@H]2NC)[C@@H](N/C(N)=N\[H])[C@@H]1O [Streptomycin, reference compound] |  |  |  | % Cell Viability Average: 110.98% and 106.86% and 105.48%; % Cell Viability Replicate 1: 112.83% and 110.01% and 108.58%; % Cell Viability Replicate 2: 109.14% and 103.70% and 102.37% |
| CCCCCCC#Cc1cncc(-c2nnc(SCc3ccc(C(F)(F)F)cc3)n2C)c1 [drawing 96] | 70.35% | 74.34% | 66.36% |  |
| CCCCCCC#Cc1cncc(-c2nnc(SCc3ccc(Cl)cc3)[nH]2)c1 [drawing 97] |  |  |  | % Cell Viability Average (125 uM): 67.98%; % Cell Viability Replicate 1 (125 uM): 68.39%; % Cell Viability Replicate 2 (125 uM): 67.58% |
| CCCCCCC#Cc1cncc(-c2nnc(SCc3ccc(C#N)cc3)n2C)c1 [drawing 98] | 66.33% | 75.34% | 57.31% |  |
| CCCCCCC#Cc1cncc(-c2nnc(SCc3ccc(OC)cc3)n2C)c1 [drawing 99] | 54.63% | 60.30% | 48.95% |  |
| CCCCCCC#Cc1cncc(-c2nnc(SCc3ccc(Cl)cc3)n2C)c1 [drawing 100] | 54.05% | 53.54% | 54.56% |  |
| CCCCCCC#Cc1cncc(-c2nnc(SCc3ccc(Cl)c(F)c3)n2C)c1 [drawing 101] |  |  |  | % Cell Viability Average (125 uM): 50.78%; % Cell Viability Replicate 1 (125 uM): 49.91%; % Cell Viability Replicate 2 (125 uM): 51.65% |
| CCCCCCC#Cc1cncc(-c2nnc(SCc3ccc(Cl)cc3)n2C)c1 [drawing 102] | 42.78% | 47.04% | 38.53% |  |
| CCCCCCC#Cc1cncc(-c2nnc(SCc3ccc(Br)cc3)n2C)c1 [drawing 103] | 42.17% | 42.94% | 41.40% |  |
| CCCCCCC#Cc1cncc(-c2nnc(SCc3cc([N+](=O)[O-])cc([N+](=O)[O-])c3)n2C)c1 [drawing 104] |  |  |  | % Cell Viability Average (125 uM): 41.70%; % Cell Viability Replicate 1 (125 uM): 42.56%; % Cell Viability Replicate 2 (125 uM): 40.84% |

| Compound | % Cell Viability Average (100 uM) | % Cell Viability Replicate 1 (100 uM) | % Cell Viability Replicate 2 (100 uM) | also measured |
| --- | --- | --- | --- | --- |
| CCCCCCC#Cc1cncc(-c2nnc(SCc3ccc([N+](=O)[O-])cc3)n2C)c1 [drawing 106] | 34.59% | 39.61% | 29.56% |  |
| CCCCCCC#Cc1cncc(-c2nnc(SCc3ccc(Cl)cc3)n2C2CC2)c1 [drawing 107] | 33.69% | 32.40% | 34.99% |  |
| CCCCCCC#Cc1cncc(-c2nnc(SCc3ccc(C)cc3)n2C)c1 [drawing 109] | 20.46% | 20.58% | 20.35% |  |
| CCCCCCC#Cc1cncc(-c2nnc(SCc3ccc(F)cc3)n2C)c1 [drawing 110] | 19.61% | 32.71% | 6.50% |  |
| CCCCCCC#Cc1cncc(-c2nnc(SCc3ccc(Cl)c(Cl)c3)n2C)c1 [drawing 111] | 18.98% | 19.98% | 17.98% |  |
| C#Cc1cncc(-c2nnc(SCc3ccc(Cl)cc3)n2C)c1 [drawing 113] | 3.10% | 3.02% | 3.18% |  |
| CCCCCCC#Cc1cncc(-c2nnc(SCc3ccc(Cl)cc3)n2C)c1 [drawing 114] | 2.36% | 2.25% | 2.47% |  |
| CCCCCCC#Cc1cccc(-c2nnc(SCc3ccc(Cl)cc3)n2C)c1 [drawing 115] | 1.77% | 1.97% | 1.58% |  |
| CCCCCCC#Cc1cncc(-c2nnc(SCc3ccc(Cl)cc3)n2C)c1 [drawing 116] | 1.67% | 1.57% | 1.76% |  |
| CCCCCCC#Cc1cncc(-c2nnc(SCc3ccc(Cl)cc3)n2C)c1 [drawing 117] | 1.56% | 1.41% | 1.70% |  |
| CCCCCCC#Cc1cncc(-c2nnc(SCc3cccc(Cl)c3)n2C)c1 [drawing 118] |  |  |  | % Cell Viability Average (125 uM): 1.53%; % Cell Viability Replicate 1 (125 uM): 2.13%; % Cell Viability Replicate 2 (125 uM): 0.94% |
| CCCCCCC#Cc1cncc(-c2nnc(SCc3ccc(Cl)cc3)[nH]2)c1 [drawing 119] |  |  |  | % Cell Viability Average (125 uM): 1.41%; % Cell Viability Replicate 1 (125 uM): 1.43%; % Cell Viability Replicate 2 (125 uM): 1.38% |
| CCCCCCC#Cc1cncc(-c2nnc(SCc3ccc([N+](=O)[O-])o3)n2C)c1 [drawing 120] | 1.31% | 1.30% | 1.31% |  |
| CCCCCCC#Cc1cncc(-c2nnc(SCCn3c([N+](=O)[O-])cnc3C)n2C)c1 [drawing 121] | 1.19% | 1.17% | 1.20% |  |
| CCCCCCC#Cc1cncc(-c2nnc(SCc3cc(F)cc(F)c3)n2C)c1 [drawing 123] |  |  |  | % Cell Viability Average (125 uM): 0.96%; % Cell Viability Replicate 1 (125 uM): 0.98%; % Cell Viability Replicate 2 (125 uM): 0.94% |
| CCC(CC)COC(=O)[C@H](C)N[P@](=O)(OC[C@H]1O[C@@](C#N)(c2ccc3c(N)ncnn23)[C@H](O)[C@@H]1O)Oc1ccccc1 [remdesivir, reference compound] |  |  |  | % Cell Viability Average (50 uM): 94.25% and 93.47% and 89.22%; % Cell Viability Replicate 1 (50 uM): 94.32% and 91.48% and 89.25%; % Cell Viability Replicate 2 (50 uM): 94.19% and 95.46% and 89.19% |
